Laboratory results taken from patent publication US12150940B2, “WASp-protecting small molecules, compositions, methods and uses thereof in the treatment of innate and acquired immune-related disorders or conditions” (BAR ILAN UNIVERSITY, priority 2016, dated 2024).

Key:
WASp [1] = molecular target: T1, WASp (Homo sapiens, UniProt P42768); assay: WASp ubiquitylation in platelets (immunoprecipitation, anti-ubiquitin blot); type: cell-based; conditions: 15 min pre-incubation, vs activated untreated cells
T1 construct: endogenous in cells; host or cells: primary human platelets from healthy donors
T1 sequence (P42768 1-502): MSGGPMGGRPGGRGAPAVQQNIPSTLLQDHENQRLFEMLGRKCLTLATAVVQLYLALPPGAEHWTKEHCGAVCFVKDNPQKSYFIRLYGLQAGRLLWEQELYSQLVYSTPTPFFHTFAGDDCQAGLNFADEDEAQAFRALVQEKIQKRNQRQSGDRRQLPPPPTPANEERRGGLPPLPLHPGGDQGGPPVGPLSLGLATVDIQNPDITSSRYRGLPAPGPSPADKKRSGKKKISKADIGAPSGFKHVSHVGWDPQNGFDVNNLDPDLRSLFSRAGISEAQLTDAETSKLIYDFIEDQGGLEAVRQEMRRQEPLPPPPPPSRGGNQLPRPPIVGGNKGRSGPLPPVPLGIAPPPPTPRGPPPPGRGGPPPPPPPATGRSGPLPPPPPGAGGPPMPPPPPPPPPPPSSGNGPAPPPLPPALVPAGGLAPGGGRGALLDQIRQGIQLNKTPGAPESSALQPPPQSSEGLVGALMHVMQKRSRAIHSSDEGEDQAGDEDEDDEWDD
Procedure: FIGS. 12A and 12B. show freshly-isolated platelets that were either stimulated (+) with TRAP-6 (10 μM) or unstimulated (−) and pre-incubated at 37° C. for 15 min with either DMSO or the indicated WASp-binding SMCs (FIG. 12A—SMC #6; FIG. 12B—SMC #33), followed by lysis. Lysates were subjected to immunoprecipitation with anti-WASp antibody and were analyzed by western blotting with anti-ubiquitin (Ub) and with anti-WASp as precipitation control. Ubiquitylated WASp appears as a smear of bands above the molecular weight (MW) of 65 kDa with a prominent band at ˜81 kDa. Blots are representative of three independent experiments.
(§1) Immunoprecipitations and western blotting analysis were performed as previously described (Reicher et al, 2012). Briefly, platelets (2×10^8 cells per sample) were lysed by the addition of an equal volume of 2× lysis buffer (30 mM HEPES pH7.4, 300 mM NaCl, 2 mM phenylmethyl sulfonyl fluoride (PMSF), 2 mM sodium orthovanadate, 2% Triton X-100 and complete protease inhibitor tablets (Roche)). MEG-01 cells (2×10^7 cells per sample) were lysed in 1.25× lysis buffer. Proteasome activity was blocked by addition of MG132 (AdooQ) to platelets and Meg-01 cell medium at final concentration of 10 μM, for 1 h before the cells were harvested. […]

WASp [2] = molecular target: T1, WASp; assay: WASp ubiquitylation in PBMCs (immunoprecipitation, anti-ubiquitin blot); type: cell-based; conditions: vs activated negative control cells
Procedure: FIGS. 12C and 12D. show freshly-isolated PBMCs that were either co-stimulated (+) with anti-CD3 and anti-CD28 or unstimulated (−). The PBMCs were pre-incubated at 37° C. for 15 min with either DMSO or the indicated WASp-binding SMCs (FIG. 12C—SMC #6; FIG. 12D—SMC #33), followed by lysis. WASp ubiquitylation was determined by immunoprecipitation as in FIG. 12A-12B. Ubiquitylated WASp appears as a smear of bands above the MW of 65 kDa with a prominent band at […]. Blots are representative of three independent experiments.
as §1, with “harvested. Densitometric analysis of band intensities was performed with ImageJ software, with final results normalized with WASp or GAPDH as loading controls for immunoprecipitated samples and whole-cell lysates, respectively.” for “harvested.”

Compound	WASp ubiquitylation in active platelets (WASp [1])	ubiquitylation of WASp in active lymphocytes (WASp [2])
CC(=O)N[C@H]1C[C@@H](c2ccc3c(c2)nnn3C)O[C@@H](c2ccc(Cl)cc2)C1 [SMC #6, N-[(2R,4R,6S)-2-(4-chlorophenyl)-6-(1-methylbenzotriazol-5-yl)oxan-4-yl]acetamide]	considerably decreased	downregulated
Cc1ccccc1N(CC(=O)NCc1ccccc1)C(=O)CCC(=O)Nc1nccs1 [SMC #33, N′-[2-(benzylamino)-2-oxoethyl]-N′-(2-methylphenyl)-N-(1,3-thiazol-2-yl)butanediamide]	considerably decreased	downregulated
